From BindingDB's records for doi:10.1016/j.bmcl.2010.06.084 (Phenex Pharmaceuticals, 2010)
pEC50: −log10 of the molar value.

Biological target: T1, Nuclear receptor subfamily 1 group I member 2 (Homo sapiens, UniProt O75469)
T1 sequence (O75469 whole entry): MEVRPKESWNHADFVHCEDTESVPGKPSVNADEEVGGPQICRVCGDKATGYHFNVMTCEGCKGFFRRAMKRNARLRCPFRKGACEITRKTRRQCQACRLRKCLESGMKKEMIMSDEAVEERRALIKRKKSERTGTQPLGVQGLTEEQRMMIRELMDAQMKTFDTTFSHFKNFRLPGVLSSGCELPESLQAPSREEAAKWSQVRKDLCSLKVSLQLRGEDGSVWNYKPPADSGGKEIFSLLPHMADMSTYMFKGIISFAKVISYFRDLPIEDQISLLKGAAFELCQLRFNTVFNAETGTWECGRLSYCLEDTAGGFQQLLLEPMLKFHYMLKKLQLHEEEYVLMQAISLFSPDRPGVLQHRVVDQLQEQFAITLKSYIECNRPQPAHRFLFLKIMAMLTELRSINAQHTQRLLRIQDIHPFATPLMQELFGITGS
Assay: Agonist activity at PXR-LBD expressed in HEK293 cells assessed as Gal4-DBD interaction by cellular mammalian one hybrid assay

SMILES	pEC50
CC(C)c1onc(-c2c(Cl)cccc2Cl)c1COc1ccc(N(C)Cc2ccc(C(=O)O)cc2)c(C(F)(F)F)n1 [4-(((6-((3-(2,6-dichlorophenyl)-5-isopropylisoxazol-4-yl)methoxy)-2-(trifluoromethyl)pyridin-3-yl)(methyl)amino)methyl)benzoic acid]	< 5.89
CN(Cc1cccc(C(=O)O)c1)c1ccc(OCc2c(-c3c(Cl)cccc3Cl)noc2C2CC2)nc1C(F)(F)F [3-(((6-((5-cyclopropyl-3-(2,6-dichlorophenyl)isoxazol-4-yl)methoxy)-2-(trifluoromethyl)pyridin-3-yl)(methyl)amino)methyl)benzoic acid]	6.41
CN(Cc1ccc(C(=O)O)cc1)c1ccc(OCc2c(-c3c(Cl)cccc3Cl)noc2C2CC2)nc1C(F)(F)F [4-(((6-((5-cyclopropyl-3-(2,6-dichlorophenyl)isoxazol-4-yl)methoxy)-2-(trifluoromethyl)pyridin-3-yl)(methyl)amino)methyl)benzoic acid]	5.41
